Consider eleven compounds from patent US20200369674A1, “ANTI-PAIN COMPOUND AND PREPARATION METHOD THEREOF” (LUNAN PHARMACEUTICAL GROUP CORPORATION, priority 2017, published 2020).

Each structure is given as a SMILES string.

Format in all cases: in vivo
Experiment [1] relates to ICR mice. Put plainly: Hot plate test. The conditions noted are these: Mus musculus, po, latency 2.0 hours after administration, hot plate 55° C., read-out: PTE %; for change in vivo at 3 mg/kg: 3 mg/kg intragastric; for change in vivo at 1 mg/kg: 1 mg/kg intragastric; for change in vivo at 4 µmol/kg: 4 μmol/kg intragastric. How it is done: (§1) ICR mice, 18-22 g, half of them being male and the other half being female, provided by the Department of Laboratory Animals, Peking University (License No.: SCXK (Beijing) 2016-0010).
The temperature of hot plate was adjusted to 55° C., and the responses of mouse such as licking hind feet and jumping were used as the observation indexes. The time from the placement of mice on copper plate to the appearance of the above responses was defined as latency time. The latency time was measured for three times 30 minutes before administration, and the average value thereof was used as basic threshold, or baseline latency (BL). The animals with a latency time greater than 15 s and less than 5 s were removed, and the residual mice were randomly grouped, 8 animals per group.
Vehicle control group (double-distilled water) and groups for samples to be tested (the compounds and doses thereof were shown in Table 1) were set. All drugs were dissolved in […] before administration, and given by intragastric administration. The latency time was measured 2.0 hours after administration. Percentage of Pain Threshold Elevated Rate (PTE %) of compound on mice was calculated according to the following formula:
PTE %=(latency time of test group−latency time of vehicle control group)/latency time of vehicle control group×100
(Thermal pain tests record how soon the animal reacts.)

Experiment [2] has as its system ICR mice. The experiment in a line: Acetic acid writhing test. On the set-up: key to Inhibition rate (%): Symbol “—” indicates that the data obtained at this dose was not significantly different from the vehicle control group. The conditions noted are these: 0.6% acetic acid ip two hours after administration; for inhibition in vivo at 3 mg/kg / inhibition in vivo at 4 µmol/kg: Mus musculus, 2 h, read-out: Inhibition rate (%); for inhibition in vivo at 3 mg/kg: po, 3 mg/kg intragastric. As for the experimental part: as §1
ICR mice, half of them being male and the other half being female, were randomly grouped, 8 mice per group. Vehicle control group (double-distilled water), ibuprofen control group, and groups for samples to be tested (the compounds and doses thereof were shown in Table 2) were set. All drugs were dissolved in double-distilled water before administration, and given by intragastric administration at predetermined doses. Two hours after the administration, the mice were intraperitoneally injected with 0.6% acetic acid solution (10 ml/kg, ip), and the number of times the mice writhed (abdomen depressed, buttock raised, body elongated) was recorded within 5-20 minutes. The inhibition rate % of compound on writhing pain in mice was calculated according to the following formula.
Inhibition rate %=(number of writhing times in vehicle control group−number of writhing times in test group)/number of writhing times in vehicle control group×100
For orientation: In writhing tests, fewer writhes than in controls are read as antinociception.

In experiment [3] the test system is ICR mice. Put plainly: Formalin experiment. The conditions noted are these: Mus musculus, po, 2 h, 2.5% formalin two hours after administration, phase II 10-60 minutes, read-out: Phase II pain inhibition rate (%); for inhibition in vivo at 9 mg/kg: 9 mg/kg intragastric; for inhibition in vivo at 1 mg/kg: 1 mg/kg intragastric; for inhibition in vivo at 4 µmol/kg: 4 μmol/kg intragastric. As for the experimental part:
as §1
ICR mice, half of them being male and the other half being female, were randomly grouped, 8 mice per group. Vehicle control group (double-distilled water) and groups for samples to be tested were set, in which the compounds and doses thereof were shown in Table 3. All drugs were dissolved in double-distilled water before administration, and given by intragastric administration at predetermined doses. Two hours after administration, the mice were injected with 20 ul of 2.5% formalin solution in the right hind foot, and the time (s) of licking or biting foot was recorded as an index of pain response, in which 0-5 minutes was phase I, 10-60 minutes was phase II, and the total observation time was 60 minutes. The phase II pain inhibition rate of compound in mice was calculated according to the following formula:
Inhibition rate %=(time of licking or biting foot in vehicle control group−time of licking or biting foot in test group)/time of licking or biting foot in vehicle control group×100

Experiment [4] has as its system ICR mice. Put plainly: Xylene-induced mouse ear swelling test (Effect Example 4). Further details: key to Inhibition rate (%): Symbol “—” indicates that the data obtained at this dose was not significantly different from the vehicle control group. The conditions noted are these: 50 uL xylene two hours after administration; for inhibition in vivo at 3 mg/kg: 3 mg/kg intragastric. As for the experimental part: as §1
ICR mice were randomly grouped, 8 mice per group, half of them being male and the other half being female. Vehicle control group (double-distilled water) and groups for samples to be tested (the compounds and doses thereof were shown in Table 4). All drugs were dissolved in double-distilled water immediately before administration, and given by intragastric administration at predetermined doses. Two hours after administration, 50 uL of xylene was smeared evenly on the inner and outer sides of right ear of mouse. After 30 minutes, the left and right ears of mouse were cut, and circular ear pieces of the same size were punched at the same position on the left and right ears, and weighed. The ear swelling inhibition rate of compound in mice was calculated according to the formula.
Inhibition rate %=(degree of ear swelling in vehicle control group−degree of ear swelling in test group)/degree of ear swelling in vehicle control group×100

[5] abbreviates: Mus musculus, po, 2 h, read-out: Inhibition rate (%).
Setting [6] is: Mus musculus, po, 2 h, 4 μmol/kg intragastric, read-out: Inhibition rate (%).

Consider `FC(F)(F)c1cccc(N2CC[N+]3(CCCC3)CC2)c1` [DXL-A-06, 8-(3-(trifluoromethyl)phenyl)-5,8-diazaspiro[4.5]decan-5-ium bromide], for which, in experiment [1], the change in vivo at 3 mg/kg turned out to be 16.7%. The values for the inhibition in vivo at 3 mg/kg in experiment [2] and in experiment [4] (setting [5]) were 14% and 45.9%, respectively. Also, the inhibition in vivo at 9 mg/kg in experiment [3] is 17.6%.

For the compound `Cc1cccc(N2CC[N+]3(CCCC3)CC2)c1` [DXL-A-10, 8-(m-tolyl)-5,8-diazaspiro[4.5]decan-5-ium bromide], in experiment [1], the change in vivo at 3 mg/kg was 11.2%. In addition, the inhibition in vivo at 3 mg/kg was 29.8% in experiment [2] and 27.4% in experiment [4] (setting [5]). Further, the inhibition in vivo at 9 mg/kg in experiment [3] was found to be 46.9%.

For `Br.Fc1ccc(N2CC[N+]3(CCCC3)CC2)cc1` [DXL-A-16, 8-(4-fluorophenyl)-5,8-diazaspiro[4.5]decan-5-ium bromide], the change in vivo at 1 mg/kg in experiment [1] was found to be 31.4%. The “Inhibition rate (%)” value in experiment [2] (1 mg/kg intragastric) and in experiment [4] (1 mg/kg intragastric) was “—” in each case. In addition, the inhibition in vivo at 1 mg/kg in experiment [3] turned out to be 31.4%.

As for `Br.N#Cc1ccc(N2CC[N+]3(CCCC3)CC2)cc1` [DXL-A-19, 8-(4-cyanophenyl)-5,8-diazaspiro[4.5]decan-5-ium bromide], the change in vivo at 1 mg/kg in experiment [1] turned out to be 34.3%. The “Inhibition rate (%)” value in experiment [2] (1 mg/kg intragastric) and in experiment [4] (1 mg/kg intragastric) was “—” throughout. Moreover, in experiment [3], the inhibition in vivo at 1 mg/kg is 34.3%.

Turning to `Br.Fc1ccc(N2CC[N+]3(CCCC3)CC2)cc1F` [DXL-A-21, 8-(3,4-difluorophenyl)-5,8-diazaspiro[4.5]decan-5-ium bromide], the change in vivo at 1 mg/kg in experiment [1] was 36.6%. Besides, the “Inhibition rate (%)” value in experiment [2] (1 mg/kg intragastric) was “—”. Moreover, the inhibition in vivo at 1 mg/kg in experiment [3] was 36.6%; in experiment [4] (Mus musculus, po, 2 h, 1 mg/kg intragastric, read-out: Inhibition rate (%)), 42.5%.

Turning to `Clc1ccc(N2CC[N+]3(CCCC3)CC2)cc1.[Br-]` [DXL-A-23, 8-(4-chlorophenyl)-5,8-diazaspiro[4.5]decan-5-ium bromide], in experiment [1], the change in vivo at 1 mg/kg came out at 39.2%. The “Inhibition rate (%)” value in experiment [2] (1 mg/kg intragastric) and in experiment [4] (1 mg/kg intragastric) was “—” throughout. For the same compound, the inhibition in vivo at 1 mg/kg in experiment [3] came to 39.2%.

Regarding `FC(F)(F)c1cc(N2CC[N+]3(CCCC3)CC2)cc(C(F)(F)F)c1` [DXL-A-27, 8-(3,5-bis(trifluoromethyl)phenyI)-5,8-diazaspiro[4.5]decan-5-ium bromide], the change in vivo at 4 µmol/kg in experiment [1] worked out at 49%. The “Inhibition rate (%)” value in experiment [2] (4 μmol/kg intragastric) was “—”. Moreover, the results for the inhibition in vivo at 4 µmol/kg in experiment [3] and in experiment [4] (setting [6]) were 20.1% and 4.13%, respectively.

Consider `O=[N+]([O-])c1cc(N2CC[N+]3(CCCC3)CC2)cc(C(F)(F)F)c1` [DXL-A-28, 8-(3-nitro-5-(trifluoromethyl)phenyI)-5,8-diazaspiro[4.5]decan-5-ium bromide], for which, in experiment [1], the change in vivo at 4 µmol/kg turned out to be 36%. For the same compound, the “Inhibition rate (%)” value in experiment [2] (4 μmol/kg intragastric) was “—”. Also, the inhibition in vivo at 4 µmol/kg in experiment [3] amounted to 13.3%; in experiment [4] (setting [6]) it was 9.27%.

For `Cc1cc(N2CC[N+]3(CCCC3)CC2)cc([N+](=O)[O-])c1` [DXL-A-29, 8-(3-methyl-5-nitrophenyl)-5,8-diazaspiro[4.5]decan-5-ium bromide], the change in vivo at 4 µmol/kg in experiment [1] is 36%. The inhibition in vivo at 4 µmol/kg was 76% in experiment [2] (4 μmol/kg intragastric), 17.3% in experiment [3] and 63.3% in experiment [4] (setting [6]).

Consider `Cc1ccc(N2CC[N+]3(CCCC3)CC2)cc1[N+](=O)[O-].[Br-]` [DXL-A-30, 8-(4-methyl-3-nitrophenyl)-5,8-diazaspiro[4.5]decan-5-ium bromide], for which the change in vivo at 4 µmol/kg in experiment [1] amounted to 21%. Besides, the inhibition in vivo at 4 µmol/kg in experiment [2] (4 μmol/kg intragastric) amounted to 41.8%; in experiment [3], 16.9%. For the same compound, the “Inhibition rate (%)” value in experiment [4] (4 μmol/kg intragastric) was “—”.

Take `N#Cc1ccc(N2CC[N+]3(CCCC3)CC2)cc1[N+](=O)[O-].[Br-]` [DXL-A-32, 8-(4-cyano-3-nitrophenyl)-5,8-diazaspiro[4.5]decan-5-ium bromide]: in experiment [1], the change in vivo at 4 µmol/kg amounted to 38%. Moreover, the “Inhibition rate (%)” value in experiment [2] (4 μmol/kg intragastric) is reported as “—”. In addition, the figures for the inhibition in vivo at 4 µmol/kg in experiment [3] and in experiment [4] (setting [6]) were 2.64% and 20.4%, respectively.
